# Test results from patent US9556179B2 (BRISTOL-MYERS SQUIBB COMPANY, priority 2012, dated 2017).
# Experiments:
# CK1δ = CK1δ (Homo sapiens (Human), UniProt P48730); assay: CK1δ kinase assay (Caliper LABCHIP electrophoretic separation of fluoresceinated peptide substrate and product); format: biochemical; conditions: 200 pM enzyme, 50 μM ATP, 22 hours at room temperature
# In short: (§1)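 Incubated for twenty-two hours at ambient temperature, then quenched with EDTA and analyzed by electrophoretic separation of unphosphorylated and phosphorylated peptide.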
# CK1ε = CK1ε (Homo sapiens (Human), UniProt P49674); assay: CK1ε kinase assay (Caliper LABCHIP electrophoretic separation of fluoresceinated peptide substrate and product); format: biochemical; conditions: 200 pM enzyme, 50 μM ATP, 22 hours at room temperature
# Sequence of CK1ε (P49674 whole entry): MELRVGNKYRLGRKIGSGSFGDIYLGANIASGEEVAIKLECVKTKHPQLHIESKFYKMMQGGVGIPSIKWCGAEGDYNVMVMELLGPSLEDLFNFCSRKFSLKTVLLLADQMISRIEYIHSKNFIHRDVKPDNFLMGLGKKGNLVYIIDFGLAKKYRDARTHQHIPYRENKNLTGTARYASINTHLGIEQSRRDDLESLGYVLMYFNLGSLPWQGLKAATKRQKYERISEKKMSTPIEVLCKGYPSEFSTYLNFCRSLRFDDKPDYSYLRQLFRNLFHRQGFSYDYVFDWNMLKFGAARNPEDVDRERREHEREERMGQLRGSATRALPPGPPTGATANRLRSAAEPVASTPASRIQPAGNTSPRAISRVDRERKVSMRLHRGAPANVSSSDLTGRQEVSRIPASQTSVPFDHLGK
# In short: as §1
# Sequence of CK1δ (P48730 whole entry): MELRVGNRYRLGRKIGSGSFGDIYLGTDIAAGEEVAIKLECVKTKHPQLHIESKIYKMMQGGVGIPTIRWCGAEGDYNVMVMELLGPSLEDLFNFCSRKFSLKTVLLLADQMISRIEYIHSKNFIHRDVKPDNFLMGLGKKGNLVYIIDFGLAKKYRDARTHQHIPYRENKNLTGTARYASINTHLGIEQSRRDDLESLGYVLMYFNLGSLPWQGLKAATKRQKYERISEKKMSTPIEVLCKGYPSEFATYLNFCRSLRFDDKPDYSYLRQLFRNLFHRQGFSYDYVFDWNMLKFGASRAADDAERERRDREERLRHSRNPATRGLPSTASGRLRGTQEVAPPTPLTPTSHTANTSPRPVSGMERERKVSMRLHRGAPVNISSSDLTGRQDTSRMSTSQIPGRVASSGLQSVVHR
Structure (SMILES),IC50 (CK1δ) [nM],IC50 (CK1ε) [nM]
"CNc1ccc2nc(-c3ccc(F)cc3)c(-c3ccc4nc(NC(=O)c5ccncc5)cn4n3)n2n1 [Compound 225, N-(2-(4-fluorophenyl)-6-(methyl-amino)-[3,6′-biimidazo[1,2-b]pyridazin]-2′-yl)isonicotinamide]",2.82,10.4
"Cc1nc(-c2ccc(F)cc2)c(-c2ccc3nc(NC(=O)c4ccncc4)cn3n2)[nH]1 [Compound 228, N-(6-(4-(4-fluorophenyl)-2-methyl-1H-imidazol-5-yl)imidazo[1,2-b]pyridazin-2-yl)isonicotinamide]",2.07,1.82
"CCCn1cnc(-c2ccc(F)cc2)c1-c1ccc2nc(NC(=O)c3ccnc(F)c3)cn2n1 [Compound 229, 2-Fluoro-N-(6-(4-(4-fluorophenyl)-1-propyl-1H-imidazol-5-yl)imidazo[1,2-b]pyridazin-2-yl)isonicotinamide]",0.474,2.57
"O=C(Nc1cn2nc(-c3c(-c4ccc(F)cc4)ncn3CCO)ccc2n1)c1ccnc(F)c1 [Compound 230, 2-fluoro-N-(6-(4-(4-fluorophenyl)-1-(2-hydroxyethyl)-1H-imidazol-5-yl)imidazo[1,2-b]pyridazin-2-yl)isonicotinamide]",0.452,3.38
O=C(Nc1cn2nc(-c3c(-c4ccc(F)cc4)ncn3CC(F)(F)F)ccc2n1)c1ccnc(F)c1 [Compound 236],0.266,1.15
"O=C(Nc1cn2nc(-c3c(-c4ccc(F)cc4)ncn3CC(F)F)ccc2n1)c1ccnc(F)c1 [Compound 237, N-(6-(1-(2,2-difluoroethyl)-4-(4-fluorophenyl)-1H-imidazol-5-yl)imidazo[1,2-b]pyridazin-2-yl)-2-fluoroisonicotinamide]",0.365,1.35
"O=C(Nc1cn2nc(-c3c(-c4ccc(F)cc4)ncn3CC3CC(F)(F)C3)ccc2n1)c1ccnc(F)c1 [Compound 249, N-(6-(1-((3,3-difluorocyclobutyl)methyl)-4-(4-fluorophenyl)-1H-imidazol-5-yl)imidazo[1,2-b]pyridazin-2-yl)-2-fluoroiso-nicotinamide]",0.371,1.1
"O=C(Nc1cn2nc(-c3c(-c4ccc(F)cc4)ncn3CC(=O)N3CCCC3)ccc2n1)c1ccnc(F)c1 [Compound 250, 2-fluoro-N-(6-(4-(4-fluorophenyl)-1-(2-oxo-2-(1-pyrrolidinyl)ethyl)-1H-imidazol-5-yl)imidazo[1,2-b]pyridazin-2-yl)isonicotinamide]",0.292,8.38
"O=C(Nc1cn2nc(-c3c(-c4ccc(F)cc4)ncn3CCOCC(F)(F)F)ccc2n1)c1ccnc(F)c1 [Compound 252, 2-fluoro-N-(6-(4-(4-fluorophenyl)-1-(2-(2,2,2-trifluoroethoxy)ethyl)-1H-imidazol-5-yl)imidazo[1,2-b]pyridazin-2-yl)isonicotinamide]",0.347,2.51
"Cn1cnc(Cn2cnc(-c3ccc(F)cc3)c2-c2ccc3nc(NC(=O)c4ccnc(F)c4)cn3n2)c1 [Compound 253, 2-fluoro-N-(6-(4-(4-fluorophenyl)-1-((1-methyl-1H-imidazol-4-yl)methyl)-1H-imidazol-5-yl)imidazo[1,2-b]pyridazin-2-yl) isonicotinamide]",1.15,18
"O=C(Nc1cn2nc(-c3c(-c4ccc(F)cc4)ncn3CCc3c[nH]cn3)ccc2n1)c1ccnc(F)c1 [Compound 255, 2-fluoro-N-(6-(4-(4-fluorophenyl)-1-(2-(1H-imidazol-4-yl)ethyl)-1H-imidazol-5-yl)imidazo[1,2-b]pyridazin-2-yl)isonicotinamide]",0.386,2.45
"O=C(Nc1cn2nc(-c3c(-c4ccc(F)cc4)ncn3C3CCCCC3)ccc2n1)c1ccnc(F)c1 [Compound 257, N-(6-(1-cyclohexyl-4-(4-fluoro-phenyl)-1H-imidazol-5-yl)imidazo[1,2-b]pyridazin-2-yl)-2-fluoroisonicotinamide]",0.325,2.29
"Cn1cc(Cn2cnc(-c3ccc(F)cc3)c2-c2ccc3nc(NC(=O)c4ccnc(F)c4)cn3n2)cn1 [Compound 259, 2-fluoro-N-(6-(4-(4-fluorophenyl)-1-((1-methyl-1H-pyrazol-4-yl)methyl)-1H-imidazol-5-yl)imidazo[1,2-b]pyridazin-2-yl) isonicotinamide]",0.314,3.17

# Continued, values first:
IC50 (CK1δ) [nM],IC50 (CK1ε) [nM],Structure (SMILES)
4.94,10.1,"O=C(Nc1cn2nc(-c3c(-c4ccc(F)cc4)nc4ccc(N5CCOCC5)nn34)ccc2n1)c1ccncc1 [Compound 226, N-(2-(4-fluorophenyl)-6-morpholino-[3,6′-biimidazo[1,2-b]pyridazin]-2′-yl)isonicotinamide]"
12.5,36.9,O=C(Nc1cn2nc(-c3c(-c4ccc(F)cc4)nc4ccc(NC5CCC5)nn34)ccc2n1)c1ccncc1 [Compound 227]
0.417,2.91,"Cn1cnc(-c2ccc(F)cc2)c1-c1ccc2nc(NC(=O)c3ccnc(F)c3)cn2n1 [Compound 231, 2-fluoro-N-(6-(4-(4-fluorophenyl)-1-methyl-1H-imidazol-5-yl)imidazo[1,2-b]pyridazin-2-yl) isonicotinamide]"
0.322,1.54,"CCn1cnc(-c2ccc(F)cc2)c1-c1ccc2nc(NC(=O)c3ccnc(F)c3)cn2n1 [Compound 232, N-(6-(1-ethyl-4-(4-fluorophenyl)-1H-imidazol-5-yl)imidazo[1,2-b]pyridazin-2-yl)-2-fluoroiso-nicotinamide]"
0.306,1.17,"COCCn1cnc(-c2ccc(F)cc2)c1-c1ccc2nc(NC(=O)c3ccnc(F)c3)cn2n1 [Compound 233, 2-fluoro-N-(6-(4-(4-fluorophenyl)-1-(2-methoxyethyl)-1H-imidazol-5-yl)imidazo[1,2-b]pyridazin-2-yl)isonicotinamide]"
0.456,2.31,O=C(Nc1cn2nc(-c3c(-c4ccc(F)cc4)ncn3CCOCCO)ccc2n1)c1ccnc(F)c1 [Compound 234]
0.362,1.4,NS(=O)(=O)CCCn1cnc(-c2ccc(F)cc2)c1-c1ccc2nc(NC(=O)c3ccnc(F)c3)cn2n1 [Compound 241]
2.16,12,"O=C(Nc1cn2nc(-c3c(-c4cccc(Cl)c4)ncn3CC(F)F)ccc2n1)c1ccnc(F)c1 [Compound 242, N-(6-(4-(3-chlorophenyl)-1-(2,2-difluoroethyl)-1H-imidazol-5-yl)imidazo[1,2-b]pyridazin-2-yl)-2-fluoroisonicotinamide]"
0.652,5.96,"O=C(Nc1cn2nc(-c3c(-c4ccccc4)ncn3CC(F)F)ccc2n1)c1ccnc(F)c1 [Compound 243, N-(6-(1-(2,2-difluoroethyl)-4-phenyl-1H-imidazol-5-yl)imidazo[1,2-b]pyridazin-2-yl)-2-fluoroisonicotinamide]"
0.899,7.43,"O=C(Nc1cn2nc(-c3c(-c4cccc(F)c4)ncn3CC(F)F)ccc2n1)c1ccnc(F)c1 [Compound 245, N-(6-(1-(2,2-difluoroethyl)-4-(3-fluorophenyl)-1H-imidazol-5-yl)imidazo[1,2-b]pyridazin-2-yl)-2-fluoroisonicotinamide]"
0.769,5.96,"O=C(Nc1cn2nc(-c3c(-c4ccccc4F)ncn3CC(F)F)ccc2n1)c1ccnc(F)c1 [Compound 246, N-(6-(1,(2,2-difluoroethyl)-4-(2-fluorophenyl)-1H-imidazol-5-yl)imidazo[1,2-b]pyridazin-2-yl)-2-fluoroisonicotinamide]"
0.385,5.38,"O=C(Nc1cn2nc(-c3c(-c4ccc(F)cc4)ncn3CCN3CCC(F)(F)CC3)ccc2n1)c1ccnc(F)c1 [Compound 251, N-(6-(1-(2-(4,4-difluoro-1-piperi-dinyl)ethyl)-4-(4-fluorophenyl)-1H-imidazol-5-yl)imidazo[1,2-b]pyridazin-2-yl)-2-fluoroiso-nicotinamide]"
1.12,18.7,"O=C(Nc1cn2nc(-c3c(-c4ccc(F)cc4)ncn3CCn3cccn3)ccc2n1)c1ccnc(F)c1 [Compound 254, 2-fluoro-N-(6-(4-(4-fluorophenyl)-1-(2-(1H-pyrazol-1-yl)ethyl)-1H-imidazol-5-yl)imidazo[1,2-b]pyridazin-2-yl)isonicotinamide]"
10.2,230,"CC(C)(C)C1CCC(n2cnc(-c3ccc(F)cc3)c2-c2ccc3nc(NC(=O)c4ccnc(F)c4)cn3n2)CC1 (centres unmarked) [Compound 256, N-(6-(1-(4-tert-butylcyclohexyl)-4-(4-fluorophenyl)-1H-imidazol-5-yl)imidazo[1,2-b]pyridazin-2-yl)-2-fluoroisonicotinamide]"
0.393,6.56,"CC(C)(C)Cn1cnc(-c2ccc(F)cc2)c1-c1ccc2nc(NC(=O)c3ccnc(F)c3)cn2n1 [Compound 258, N-(6-(1-(2,2-dimethylpropyl)-4-(4-fluorophenyl)-1H-imidazol-5-yl)imidazo[1,2-b]pyridazin-2-yl)-2-fluoroisonicotinamide]"
0.403,14.8,"O=C(Nc1cn2nc(-c3c(-c4ccc(F)cc4)ncn3CCN3CCCCC3=O)ccc2n1)c1ccnc(F)c1 [Compound 261, 2-fluoro-N-(6-(4-(4-fluorophenyl)-1-(2-(2-oxopiperidin-1-yl)ethyl)-1H-imidazol-5-yl)imidazo[1,2-b]pyridazin-2-yl)isonicotinamide]"
0.331,3.48,"O=C(Nc1cn2nc(-c3c(-c4ccc(F)cc4)ncn3C3CC(F)(F)C3)ccc2n1)c1ccnc(F)c1 [Compound 262, N-(6-(1-(3,3-difluorocyclobutyl)-4-(4-fluorophenyl)-1H-imidazol-5-yl)imidazo[1,2-b]pyridazin-2-yl)-2-fluoroisonicotinamide]"
0.436,5.4,"O=C(Nc1cn2nc(-c3c(-c4ccc(F)cc4)ncn3CCCn3ccnc3)ccc2n1)c1ccnc(F)c1 [Compound 263, 2-fluoro-N-(6-(4-(4-fluorophenyl)-1-(3-(1H-imidazol-1-yl)propyl)-1H-imidazol-5-yl)imidazo[1,2-b]pyridazin-2-yl)isonicotinamide]"
